According to patent US20020137929A1, “1 - (3-heterocyclylphenyl) isothiourea, -isourea, -guanidine and -amidine herbicidal agents” (Intellectual Property Department, BASF Aktiengesellschaft, priority 1998, published 2002):

How the values were obtained:
[1] = test system: ABUTH (Velvetleaf); test: Postemergence herbicidal evaluation; type: in vivo, Abutilon theophrasti; settings: postemergence
How it was run: (§1)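 Scores (0–9) reflect plant stand, vigor, malformation, size, chlorosis and general appearance relative to control, read 4 to 5 weeks after treatment and averaged where tests were repeated. Application: about 0.0156–0.500 kg/ha sprayed at 40 psi onto two-week seedlings.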

[2] = test system: AMBEL (Ragweed, Common); test: Postemergence herbicidal evaluation; type: in vivo, Ambrosia artemisifolia; settings: postemergence
How it was run: as §1

[3] = test system: IPOHE (Morningglory, Ivyleaf); test: Postemergence herbicidal evaluation; type: in vivo, Ipomoea hederacea; settings: postemergence
How it was run: as §1

[4] = test system: ECHCG (Barnyardgrass); test: Postemergence herbicidal evaluation; type: in vivo, Echinochloa crus-galli; settings: postemergence
How it was run: as §1

[5] = test system: SETVI (Foxtail, Green); test: Postemergence herbicidal evaluation; type: in vivo, Setaria viridis; settings: postemergence
How it was run: as §1

[6] = test system: GLXMAW (Soybean, Williams); test: Postemergence herbicidal evaluation; type: in vivo, Glycine max, (L.) Merr. cv Williams; settings: postemergence
How it was run: as §1

[7] = test system: TRZAWR (Wheat, Winter, cv Riband); test: Postemergence herbicidal evaluation; type: in vivo, Triticum aestivum; settings: postemergence
How it was run: as §1

[8] = test system: CASOB (Sicklepod); test: Preemergence herbicidal evaluation; type: in vivo, Cassia obtusifolia; settings: rated 4-5 weeks after treatment, rating scale 0-9
How it was run: (§2)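 Preemergence soil application of compound, sprayed in aqueous acetone at rates equivalent to about 0.0156 to 0.500 kg per hectare onto freshly sown cups. Plant response was judged by eye on a 0-9 scale four to five weeks later.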

[9] = test system: CHEAL (Lambsquarters, Common); test: Preemergence herbicidal evaluation; type: in vivo, Chenopodium album; settings: rated 4-5 weeks after treatment, rating scale 0-9
How it was run: as §2

[10] = test system: GALAP (Galium); test: Preemergence herbicidal evaluation; type: in vivo, Galium aparine; settings: rated 4-5 weeks after treatment, rating scale 0-9
How it was run: as §2

[11] = test system: IPOHE (Morningglory, Ivyleaf); test: Preemergence herbicidal evaluation; type: in vivo, Ipomoea hederacea; settings: rated 4-5 weeks after treatment, rating scale 0-9
How it was run: as §2

[12] = test system: ECHCG (Barnyardgrass); test: Preemergence herbicidal evaluation; type: in vivo, Echinochloa crus-galli; settings: rated 4-5 weeks after treatment, rating scale 0-9
How it was run: as §2

[13] = test system: ZEAMX (Corn, Field); test: Preemergence herbicidal evaluation; type: in vivo, Zea mays; settings: rated 4-5 weeks after treatment, rating scale 0-9
How it was run: as §2

## Cc1cc(C)cc(CN2C(=O)CSC2=Nc2cc(-n3c(=O)cc(C(F)(F)F)n(C)c3=O)c(F)cc2Cl)c1 [Compound 146, 3-{4-Chloro-5-{[3-(3,5-dimethylbenzyl)-4-oxo-2-thiazolidinylidene]amino}-2-fluorophenyl}-1-methyl-6-(trifluoromethyl)-2,4(1H,3H)-pyrimidinedione]
[1]; rate 0.0156 kg/ha
  Herbicidal rating ABUTH: 9.0
[1]; rate 0.0313 kg/ha
  Herbicidal rating ABUTH: 9.0
[1]; rate 0.0625 kg/ha
  Herbicidal rating ABUTH: 9.0
[2]; rate 0.0156 kg/ha
  Herbicidal rating AMBEL: 9.0
[2]; rate 0.0313 kg/ha
  Herbicidal rating AMBEL: 9.0
[2]; rate 0.0625 kg/ha
  Herbicidal rating AMBEL: 9.0
[3]; rate 0.0156 kg/ha
  Herbicidal rating IPOHE: 9.0
[3]; rate 0.0313 kg/ha
  Herbicidal rating IPOHE: 9.0
[3]; rate 0.0625 kg/ha
  Herbicidal rating IPOHE: 9.0
[4]; rate 0.0156 kg/ha
  Herbicidal rating ECHCG: 1.0
[4]; rate 0.0313 kg/ha
  Herbicidal rating ECHCG: 1.0
[4]; rate 0.0625 kg/ha
  Herbicidal rating ECHCG: 2.0
[5]; rate 0.0156 kg/ha
  Herbicidal rating SETVI: 1.0
[5]; rate 0.0313 kg/ha
  Herbicidal rating SETVI: 2.0
[5]; rate 0.0625 kg/ha
  Herbicidal rating SETVI: 3.0
[6]; rate 0.0156 kg/ha
  Herbicidal rating GLXMAW: 5.0
[6]; rate 0.0313 kg/ha
  Herbicidal rating GLXMAW: 6.0
[6]; rate 0.0625 kg/ha
  Herbicidal rating GLXMAW: 6.0
[7]; rate 0.0156 kg/ha
  Herbicidal rating TRZAWR: 2.0
[7]; rate 0.0313 kg/ha
  Herbicidal rating TRZAWR: 3.5
[7]; rate 0.0625 kg/ha
  Herbicidal rating TRZAWR: 4.5
[8]; rate 0.0156 kg/ha
  Preemergence herbicidal rating CASOB: 0.0
[8]; rate 0.0313 kg/ha
  Preemergence herbicidal rating CASOB: 0.0
[8]; rate 0.0625 kg/ha
  Preemergence herbicidal rating CASOB: 0.0
[8]; rate 0.1250 kg/ha
  Preemergence herbicidal rating CASOB: 1.0
[8]; rate 0.2500 kg/ha
  Preemergence herbicidal rating CASOB: 1.0
[9]; rate 0.0156 kg/ha
  Preemergence herbicidal rating CHEAL: 0.0
[9]; rate 0.0313 kg/ha
  Preemergence herbicidal rating CHEAL: 9.0
[9]; rate 0.0625 kg/ha
  Preemergence herbicidal rating CHEAL: 9.0
[9]; rate 0.1250 kg/ha
  Preemergence herbicidal rating CHEAL: 9.0
[9]; rate 0.2500 kg/ha
  Preemergence herbicidal rating CHEAL: 9.0
[10]; rate 0.0156 kg/ha
  Preemergence herbicidal rating GALAP: 1.0
[10]; rate 0.0313 kg/ha
  Preemergence herbicidal rating GALAP: 0.0
[10]; rate 0.0625 kg/ha
  Preemergence herbicidal rating GALAP: 0.0
[10]; rate 0.1250 kg/ha
  Preemergence herbicidal rating GALAP: 2.0
[10]; rate 0.2500 kg/ha
  Preemergence herbicidal rating GALAP: 2.0
[11]; rate 0.0156 kg/ha
  Preemergence herbicidal rating IPOHE: 0.0
[11]; rate 0.0313 kg/ha
  Preemergence herbicidal rating IPOHE: 0.0
[11]; rate 0.0625 kg/ha
  Preemergence herbicidal rating IPOHE: 0.0
[11]; rate 0.1250 kg/ha
  Preemergence herbicidal rating IPOHE: 0.0
[11]; rate 0.2500 kg/ha
  Preemergence herbicidal rating IPOHE: 0.0
[12]; rate 0.0156 kg/ha
  Preemergence herbicidal rating ECHCG: 0.0
[12]; rate 0.0313 kg/ha
  Preemergence herbicidal rating ECHCG: 0.0
[12]; rate 0.0625 kg/ha
  Preemergence herbicidal rating ECHCG: 0.0
[12]; rate 0.1250 kg/ha
  Preemergence herbicidal rating ECHCG: 0.0
[12]; rate 0.2500 kg/ha
  Preemergence herbicidal rating ECHCG: 0.0
[13]; rate 0.0156 kg/ha
  Preemergence herbicidal rating ZEAMX: 0.0
[13]; rate 0.0313 kg/ha
  Preemergence herbicidal rating ZEAMX: 0.0
[13]; rate 0.0625 kg/ha
  Preemergence herbicidal rating ZEAMX: 0.0
[13]; rate 0.1250 kg/ha
  Preemergence herbicidal rating ZEAMX: 0.0
[13]; rate 0.2500 kg/ha
  Preemergence herbicidal rating ZEAMX: 0.0

## Cc1ccc(CN2C(=O)CSC2=Nc2cc(-n3c(=O)cc(C(F)(F)F)n(C)c3=O)c(F)cc2Cl)cc1Cl [Compound 149, 3-{4-Chloro-5-{[3-(3-chloro-4-methylbenzyl)-4-oxo-2-thiazolidinylidene]amino}-2-fluorophenyl}-1-methyl-6-(trifluoromethyl)-2,4(1H,3H)-pyrimidinedione]
[1]; rate 0.0156 kg/ha
  Herbicidal rating ABUTH: 4.0
[1]; rate 0.0313 kg/ha
  Herbicidal rating ABUTH: 8.0
[1]; rate 0.0625 kg/ha
  Herbicidal rating ABUTH: 9.0
[2]; rate 0.0156 kg/ha
  Herbicidal rating AMBEL: 4.0
[2]; rate 0.0313 kg/ha
  Herbicidal rating AMBEL: 9.0
[2]; rate 0.0625 kg/ha
  Herbicidal rating AMBEL: 9.0
[3]; rate 0.0156 kg/ha
  Herbicidal rating IPOHE: 9.0
[3]; rate 0.0313 kg/ha
  Herbicidal rating IPOHE: 9.0
[3]; rate 0.0625 kg/ha
  Herbicidal rating IPOHE: 9.0
[4]; rate 0.0156 kg/ha
  Herbicidal rating ECHCG: 0.0
[4]; rate 0.0313 kg/ha
  Herbicidal rating ECHCG: 0.0
[4]; rate 0.0625 kg/ha
  Herbicidal rating ECHCG: 0.0
[5]; rate 0.0156 kg/ha
  Herbicidal rating SETVI: 0.0
[5]; rate 0.0313 kg/ha
  Herbicidal rating SETVI: 0.0
[5]; rate 0.0625 kg/ha
  Herbicidal rating SETVI: 0.0
[6]; rate 0.0156 kg/ha
  Herbicidal rating GLXMAW: 4.0
[6]; rate 0.0313 kg/ha
  Herbicidal rating GLXMAW: 4.5
[6]; rate 0.0625 kg/ha
  Herbicidal rating GLXMAW: 4.5
[7]; rate 0.0156 kg/ha
  Herbicidal rating TRZAWR: 3.0
[7]; rate 0.0313 kg/ha
  Herbicidal rating TRZAWR: 3.5
[7]; rate 0.0625 kg/ha
  Herbicidal rating TRZAWR: 3.5
[8]; rate 0.1250 kg/ha
  Preemergence herbicidal rating CASOB: 0.0
[8]; rate 0.2500 kg/ha
  Preemergence herbicidal rating CASOB: 0.0
[9]; rate 0.1250 kg/ha
  Preemergence herbicidal rating CHEAL: 3.0
[9]; rate 0.2500 kg/ha
  Preemergence herbicidal rating CHEAL: 9.0
[10]; rate 0.1250 kg/ha
  Preemergence herbicidal rating GALAP: 0.0
[10]; rate 0.2500 kg/ha
  Preemergence herbicidal rating GALAP: 0.0
[11]; rate 0.1250 kg/ha
  Preemergence herbicidal rating IPOHE: 0.0
[11]; rate 0.2500 kg/ha
  Preemergence herbicidal rating IPOHE: 2.0
[12]; rate 0.1250 kg/ha
  Preemergence herbicidal rating ECHCG: 0.0
[12]; rate 0.2500 kg/ha
  Preemergence herbicidal rating ECHCG: 0.0
[13]; rate 0.1250 kg/ha
  Preemergence herbicidal rating ZEAMX: 0.0
[13]; rate 0.2500 kg/ha
  Preemergence herbicidal rating ZEAMX: 2.0
